Results on 14 compounds are retold here after patent US11786528B2, “Pyrazolopyrimidine compounds as adenosine receptor antagonists” (EXSCIENTIA LTD., priority 2018, dated 2023).

As a reminder, the EC50 is the concentration at which the effect is half-maximal. A higher EC50 goes with a less potent agent. The IC50 is the concentration that gives 50% inhibition. Higher therefore signals weaker potency in that assay. Usually solubility stands for the concentration that dissolves in the medium under given conditions. Low readings indicate a poorly soluble substance, high ones a readily soluble substance.

In data set [1] the target is human A2a receptors (HEK 293 transfected) (Homo sapiens (Human), UniProt P29274). The data set can be described thus: Inhibition of cAMP release in HEK-A2aR cells (HTRF, LANCE Ultra cAMP). In kind it is cell-based. The following applies: 3 nM NECA, 10 min. The method, then: Functional activity was measured by inhibition of cAMP release in HEK cells (see below for further details).
To screen A2a receptor inhibitors by HTRF technology, about 500 HEK-A2aR cells (HEK 293 transfected with human A2a receptors) were treated with inhibitors in presence of stimulation buffer (1×HBSS, 5 mM HEPES, 0.1% BSA stabilizer, pH 7.4) supplemented with 30 μM phosphodiesterase inhibitor Rolipram (to prevent cAMP degradation). This stimulation was immediately followed by treatment with 3 nM standard A2aR agonist (NECA) for 10 min under gentle shaking at room temperature. After that, inhibition of cAMP release was determined directly using LANCE Ultra cAMP assay (Perkin Elmer TRF0263).
All analysis was performed using GraphPad Prism 7.0 (GraphPad Software, San Diego, USA). Results are given, as EC50 (M).
In general terms: In TR-FRET formats the signal depends on donor and acceptor labels being close together.

Data set [2] has as its target human adenosine receptor sub-type A1 (Homo sapiens (Human), UniProt P30542). Put plainly: Affinity for human adenosine A1 receptor by SPR. It is filed as binding. The following applies: for IC50: SPR, human A1 receptor; for Relative selectivity for A2a v. A1: from SPR IC50 values, rounded to 2 significant figures. The method, then:
(§1) Affinity for the human adenosine receptor sub-types (A2a, A2b, A1 and A3) was determined by surface plasmon resonance (SPR) using published methodologies (see below for further details).
(§2) Affinity for the human adenosine receptor sub-types (A2a, A2b, A1 and A3) was determined by SPR as described in Aristotelous, T., et al, Methods in Enzymology (2015), Volume 556, Chapter 23, pages 499-525 and Congreve, M., et al, J Med Chem (2012), Vol. 55, pages 1898-1903. The method used was analogous to the method used in Congreve, M., et al (see supplementary page S10) for the A2a receptor, but the wild type receptor was used rather than the proprietary StaR form.
(In SPR one partner is held on a chip, and binding of the other changes the refractive index at the surface.)

The target in data set [3] is human adenosine receptor sub-type A2b (Homo sapiens (Human), UniProt P29275). The data set can be described thus: Affinity for human adenosine A2b receptor by SPR. It is filed as binding. The following applies: for IC50: SPR, human A2b receptor; for Relative selectivity for A2a v. A2b: from SPR IC50 values, rounded to 2 significant figures. The method, then: as §1, §2

For data set [4], the target named is human adenosine receptor sub-type A3 (Homo sapiens (Human), UniProt P0DMS8). Put plainly: Affinity for human adenosine A3 receptor by SPR. Conditions: for Relative selectivity for A2a v. A3: from SPR IC50 values, rounded to 2 significant figures. In kind it is binding. The method, then: as §1, §2
The target of data set [5] is human adenosine receptor sub-type A2a (wild type) (Homo sapiens (Human), UniProt P29274). The data set can be described thus: Affinity for human adenosine A2a receptor by surface plasmon resonance (SPR). It is filed as binding. As for the experimental part:
as §1, §2

A further data set can be described thus: Solubility. Conditions: water (or specific buffer), thermodynamic from solid, overnight stirring at ambient temperature, LC-UV. In kind it is physicochemical. The text has this: The test compound in solid form was suspended in water (or specific buffer). After overnight stirring at ambient temperature protected from light, suspensions were filtered. An aliquot of the resulting supernatant was quantified using LC-UV method against a reference solution in DMSO obtained by preparation from powder.

≈ marks a conversion by molar mass, not a printed value.

human adenosine receptor sub-type A3, sequence (P0DMS8 whole entry): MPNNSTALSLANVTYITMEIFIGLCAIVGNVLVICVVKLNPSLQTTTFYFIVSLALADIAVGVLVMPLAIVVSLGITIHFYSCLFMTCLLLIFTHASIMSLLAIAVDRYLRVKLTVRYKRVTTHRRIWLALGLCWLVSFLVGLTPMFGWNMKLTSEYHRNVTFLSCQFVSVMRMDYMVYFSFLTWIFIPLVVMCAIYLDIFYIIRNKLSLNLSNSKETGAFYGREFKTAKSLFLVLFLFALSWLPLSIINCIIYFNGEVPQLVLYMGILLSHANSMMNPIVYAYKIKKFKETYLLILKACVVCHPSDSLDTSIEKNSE
human adenosine receptor sub-type A1, sequence (P30542 whole entry): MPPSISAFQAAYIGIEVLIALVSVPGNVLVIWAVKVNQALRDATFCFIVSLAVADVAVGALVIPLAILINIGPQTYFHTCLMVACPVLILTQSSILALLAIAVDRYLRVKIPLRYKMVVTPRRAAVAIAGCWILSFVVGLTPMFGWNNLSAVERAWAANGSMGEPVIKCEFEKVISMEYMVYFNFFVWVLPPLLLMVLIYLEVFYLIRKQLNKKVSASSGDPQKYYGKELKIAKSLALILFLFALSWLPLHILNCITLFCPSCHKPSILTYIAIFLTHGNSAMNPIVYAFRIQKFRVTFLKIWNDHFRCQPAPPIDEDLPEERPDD
human adenosine receptor sub-type A2a (wild type), sequence (P29274 whole entry): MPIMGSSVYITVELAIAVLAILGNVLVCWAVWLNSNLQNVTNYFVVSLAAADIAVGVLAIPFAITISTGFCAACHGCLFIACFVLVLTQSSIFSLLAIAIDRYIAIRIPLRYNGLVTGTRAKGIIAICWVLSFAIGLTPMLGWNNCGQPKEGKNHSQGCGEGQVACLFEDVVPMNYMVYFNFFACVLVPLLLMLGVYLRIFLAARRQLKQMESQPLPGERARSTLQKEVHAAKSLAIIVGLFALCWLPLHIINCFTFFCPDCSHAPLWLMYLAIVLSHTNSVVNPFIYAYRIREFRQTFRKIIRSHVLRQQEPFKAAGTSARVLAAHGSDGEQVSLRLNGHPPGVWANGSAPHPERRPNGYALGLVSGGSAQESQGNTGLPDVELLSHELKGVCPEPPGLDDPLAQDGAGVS
human A2a receptors (HEK 293 transfected), sequence (P29274 whole entry): as above
human adenosine receptor sub-type A2b, sequence (P29275 whole entry): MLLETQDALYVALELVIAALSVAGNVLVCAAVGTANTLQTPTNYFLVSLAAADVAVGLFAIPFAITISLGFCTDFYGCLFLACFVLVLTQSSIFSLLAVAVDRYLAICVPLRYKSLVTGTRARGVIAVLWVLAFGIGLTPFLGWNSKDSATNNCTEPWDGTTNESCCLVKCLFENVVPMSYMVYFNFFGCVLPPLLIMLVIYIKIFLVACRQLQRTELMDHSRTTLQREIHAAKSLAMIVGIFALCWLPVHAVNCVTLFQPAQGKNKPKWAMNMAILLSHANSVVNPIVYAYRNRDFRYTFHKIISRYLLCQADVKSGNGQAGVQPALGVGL

The compound `Cc1ccc(Cn2cc3c(N)nc(-c4cnccn4)nc3n2)cc1` [Example 12, 2-[(4-methylphenyl)methyl]-6-(pyrazin-2-yl)-2H-pyrazolo[3,4-d]pyrimidin-4-amine] had an EC50 in data set [1] of 199 nM. For the same compound, the IC50 in data set [2] was found to be 7300 nM; in data set [3], 9000 nM; in data set [4] (SPR, human A3 receptor), 38.8 µM; in data set [5] it was 7.9 nM. For the same compound, in data set [2], the “Relative selectivity for A2a v. A1” value is reported as 920. Further, the “Relative selectivity for A2a v. A2b” value in data set [3] was found to be 1100. Moreover, the “Relative selectivity for A2a v. A3” value in data set [4] is 4900.
`COc1ccccc1Cn1cc2c(N)nc(-c3cnco3)nc2n1` [Example 40, 2-[(2-methoxyphenyl)methyl]-6-(1,3-oxazol-5-yl)-2H-pyrazolo[3,4-d]pyrimidin-4-amine] registered an EC50 in data set [1] of 13 nM. Besides, the IC50 turned out to be 990 nM in data set [2]; 1460 nM in data set [3]; 46.2 µM in data set [4] (SPR, human A3 receptor); 2 nM in data set [5]. Moreover, in data set [2], the “Relative selectivity for A2a v. A1” value came out at 500. In addition, the “Relative selectivity for A2a v. A2b” value in data set [3] is listed as 730. The “Relative selectivity for A2a v. A3” value in data set [4] is given as 23000.
`Nc1nc(-c2ccsn2)nc2nn(Cc3ccccc3O)cc12` [Example 44, 2-{[4-amino-6-(1,2-thiazol-3-yl)-2H-pyrazolo[3,4-d]pyrimidin-2-yl]methyl}phenol] gave a solubility in “Solubility” of over 50 µg/mL. In addition, a half-maximal effect in data set [1] (EC50) was put at 127 nM. Also, the IC50 in data set [5] worked out at 15 nM.
`COc1cccc(Cn2cc3c(N)nc(-c4cnco4)nc3n2)c1` [Example 11, 2-[(3-methoxyphenyl)methyl]-6-(1,3-oxazol-5-yl)-2H-pyrazolo[3,4-d]pyrimidin-4-amine] had a solubility in “Solubility” of over 10 µg/mL. In data set [1], this compound had an EC50 of 70 nM. Besides, the IC50 worked out at 350 nM in data set [2]; 580 nM in data set [3]; 21 µM in data set [4] (SPR, human A3 receptor); 4.9 nM in data set [5]. Also, in data set [2], the “Relative selectivity for A2a v. A1” value turned out to be 71. In data set [3], the “Relative selectivity for A2a v. A2b” value came to 120. Also, the “Relative selectivity for A2a v. A3” value in data set [4] was 4300.
On to `COc1cccc(Cn2cc3c(N)nc(-c4ccsn4)nc3n2)c1` [Example 10, 2-[(3-methoxyphenyl)methyl]-6-(1,2-thiazol-3-yl)-2H-pyrazolo[3,4-d]pyrimidin-4-amine], for which a half-maximal response in data set [1] (EC50) required 235 nM. The IC50 in data set [2] amounted to 680 nM; in data set [3] it was 690 nM; in data set [4] (SPR, human A3 receptor) it was 60 µM; in data set [5], 5.1 nM. Moreover, the “Relative selectivity for A2a v. A1” value in data set [2] turned out to be 130. Also, in data set [3], the “Relative selectivity for A2a v. A2b” value is recorded as 140. Further, in data set [4], the “Relative selectivity for A2a v. A3” value came to 12000.
`COc1ccccc1Cn1cc2c(N)nc(-c3ccsn3)nc2n1` [Example 38, 2-[(2-methoxyphenyl)methyl]-6-(1,2-thiazol-3-yl)-2H-pyrazolo[3,4-d]pyrimidin-4-amine] returned an EC50 in data set [1] of 13 nM. The IC50 was determined as 3400 nM in data set [2]; 11700 nM in data set [3]; 44.3 µM in data set [4] (SPR, human A3 receptor); 4.3 nM in data set [5]. For the same compound, the “Relative selectivity for A2a v. A1” value in data set [2] turned out to be 790. Besides, the “Relative selectivity for A2a v. A2b” value in data set [3] is on record as 2700. The “Relative selectivity for A2a v. A3” value in data set [4] is 10000.
`Cc1ccc(Cn2cc3c(N)nc(-c4ccsn4)nc3n2)cc1F` [Example 19, 2-[(3-fluoro-4-methylphenyl)methyl]-6-(1,2-thiazol-3-yl)-2H-pyrazolo[3,4-d]pyrimidin-4-amine] had a solubility in the data set “Solubility” of over 5 µg/mL. In addition, it took 84 nM to reach a half-maximal effect in data set [1] (EC50). In data set [2], the IC50 was determined as 1180 nM and the “Relative selectivity for A2a v. A1” value was determined as 210. Further, in data set [3], it took 1450 nM to reach half-maximal inhibition (IC50) and the “Relative selectivity for A2a v. A2b” value is listed as 260. Further, in data set [4] (SPR, human A3 receptor), the “A3 SPR IC50” value is “Non-”. Also, the “Relative selectivity for A2a v. A3” value in data set [4] is over 10000. Moreover, the IC50 in data set [5] was 5.6 nM.
Consider `COc1cccc(Cn2cc3c(N)nc(-c4nccs4)nc3n2)c1` [Example 8, 2-[(3-methoxyphenyl)methyl]-6-(1,3-thiazol-2-yl)-2H-pyrazolo[3,4-d]pyrimidin-4-amine], for which the solubility in “Solubility” was over 10 µg/mL. In data set [1], this compound had an EC50 of 23 nM. In data set [5], the IC50 is 11 nM.
As for `Nc1nc(-c2ccsn2)nc2nn(Cc3cccc(Cl)c3)cc12` [Example 35, 2-[(3-chlorophenyl)methyl]-6-(1,2-thiazol-3-yl)-2H-pyrazolo[3,4-d]pyrimidin-4-amine], the solubility in “Solubility” was over 10 µg/mL. The EC50 in data set [1] worked out at 60 nM. Also, the IC50 came to 290 nM in data set [2]; 530 nM in data set [3]; 4.7 µM in data set [4] (SPR, human A3 receptor); 4.2 nM in data set [5]. Moreover, the “Relative selectivity for A2a v. A1” value in data set [2] was 69. Besides, in data set [3], the “Relative selectivity for A2a v. A2b” value is recorded as 130. In addition, the “Relative selectivity for A2a v. A3” value in data set [4] stood at 1100.
Regarding `Cc1cccc(Cn2cc3c(N)nc(-c4cnccn4)nc3n2)c1` [Example 27, 2-[(3-methylphenyl)methyl]-6-(pyrazin-2-yl)-2H-pyrazolo[3,4-d]pyrimidin-4-amine], the solubility in “Solubility” is over 50 µg/mL. Moreover, the response in data set [1] was half-maximal at 7 nM (EC50). The same compound yielded an IC50 in data set [5] of 3.2 nM.
For `COc1ccccc1Cn1cc2c(N)nc(-c3cnccn3)nc2n1` [Example 37, 2-[(2-methoxyphenyl)methyl]-6-(pyrazin-2-yl)-2H-pyrazolo[3,4-d]pyrimidin-4-amine] the same measures were over 10 µg/mL, 82 nM and 2.7 nM.
Compound `Cc1ccc(Cn2cc3c(N)nc(-c4ccsn4)nc3n2)cc1C(F)(F)F` [Example 24, 2-{[4-methyl-3-(trifluoromethyl)phenyl]methyl}-6-(1,2-thiazol-3-yl)-2H-pyrazolo[3,4-d]pyrimidin-4-amine] registered an EC50 in data set [1] of 11 nM. Also, the IC50 in data set [2] is 1420 nM; in data set [3], 25600 nM; in data set [4] (SPR, human A3 receptor), 49.9 µM; in data set [5] it was 7.9 nM. In addition, in data set [2], the “Relative selectivity for A2a v. A1” value was 180. Moreover, the “Relative selectivity for A2a v. A2b” value in data set [3] is listed as 3200. Moreover, the “Relative selectivity for A2a v. A3” value in data set [4] is recorded as 6300.
On to `COc1ccccc1Cn1cc2c(N)nc(-c3ccc(C)o3)nc2n1` [Comparative Example 1, reference compound], for which the concentration in solution in the data set “Solubility” (solubility) came to 1 µg/mL (≈ 2.98 µM). Moreover, the EC50 in data set [1] amounted to 18 nM. For the same compound, the IC50 came to 114 nM in data set [2]; 4910 nM in data set [3]; 1.97 µM in data set [4] (SPR, human A3 receptor); 2.2 nM in data set [5]. In addition, the “Relative selectivity for A2a v. A1” value in data set [2] turned out to be 51. The “Relative selectivity for A2a v. A2b” value in data set [3] is given as 2200. Further, in data set [4], the “Relative selectivity for A2a v. A3” value is 900.
Take `COc1ccc(Cn2cc3c(N)nc(-c4cnccn4)nc3n2)cc1OC` [Example 41, 2-[(3,4-dimethoxyphenyl)methyl]-6-(pyrazin-2-yl)-2H-pyrazolo[3,4-d]pyrimidin-4-amine]: in the data set “Solubility”, the solubility is over 50 µg/mL. This compound displayed a 50% inhibitory concentration (IC50) in data set [5] of 589 nM.
